In ChEMBL document CHEMBL1201862, “PubChem BioAssay data set” (2004):
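Test compounds were applied to cells in 96-well plates for 48 hours at 5 doses. Abbreviation: GI50, concentration required for 50% inhibition of growth.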 Activity calls are given as the source filed them. No stated cut-off is given here; in the data, active = GI50 up to about 1.1 µM and inactive = higher.

What was measured:
Assay in all cases: inhibition of tumour cell growth, NCI panel, 48 h
NCI-H460 = system: NCI-H460
SN12C = system: SN12C
UO-31 = system: UO-31
HCT-15 = system: HCT-15
HOP-92 = system: HOP-92
A549 = system: A549
UACC-257 = system: UACC-257
SK-MEL-2 = system: SK-MEL-2
MDA-MB-231 = system: MDA-MB-231
OVCAR-5 = system: OVCAR-5
K562 = system: K562
MCF7 = system: MCF7
RXF 393 = system: RXF 393
HT-29 = system: HT-29
NCI/ADR-RES = system: NCI/ADR-RES
KM12 = system: KM12
Hs-578T = system: Hs-578T
EKVX = system: EKVX
SK-MEL-28 = system: SK-MEL-28
SNB-19 = system: SNB-19
A498 = system: A498
OVCAR-8 = system: OVCAR-8
NCI-H522 = system: NCI-H522
M14 = system: M14
T47D = system: T47D
786-0 = system: 786-0
ACHN = system: ACHN
Malme-3M = system: Malme-3M
NCI-H23 = system: NCI-H23
SR = system: SR
IGROV-1 = system: IGROV-1
OVCAR-4 = system: OVCAR-4
SF-295 = system: SF-295
RPMI-8226 = system: RPMI-8226
TK-10 = system: TK-10
MDA-N = system: MDA-N
SK-MEL-5 = system: SK-MEL-5
OVCAR-3 = system: OVCAR-3
SW-620 = system: SW-620
MOLT-4 = system: MOLT-4
LOX IMVI = system: LOX IMVI
HCC 2998 = system: HCC 2998
CAKI-1 = system: CAKI-1
UACC-62 = system: UACC-62
COLO 205 = system: COLO 205
SK-OV-3 = system: SK-OV-3
HOP-62 = system: HOP-62
HL-60 = system: HL-60
PC-3 = system: PC-3
U-251 = system: U-251
SF-268 = system: SF-268
SF-539 = system: SF-539
CCRF-CEM = system: CCRF-CEM
BT-549 = system: BT-549
DU-145 = system: DU-145
SNB-75 = system: SNB-75
MDA-MB-435 = system: MDA-MB-435
HCT-116 = system: HCT-116
NCI-H226 = system: NCI-H226

For `CCOC(=O)CC[C@H](N)C(=O)N[C@H](Cc1ccc(N(CCCl)CCCl)cc1)C(=O)OCC`, which GI50 (NCI-H460) is on record?
Its GI50 is 1.58 µM (inactive).

And the GI50 (SN12C)?
The GI50 was 1.79 µM (inactive).

And the GI50 (UO-31)?
The GI50 was 0.419 µM (active).

And the GI50 (HCT-15)?
The GI50 was 4.39 µM.

What about the GI50 (HOP-92) of the same compound?
Its GI50 is 0.561 µM (active).

What about the GI50 (A549) of the same compound?
The GI50 was 3.54 µM (inactive).

What about the GI50 (UACC-257) of the same compound?
The GI50 was 10 µM (inactive).

And the GI50 (SK-MEL-2)?
Its GI50 is 12.3 µM (inactive).

What about the GI50 (MDA-MB-231) of the same compound?
The GI50 was 6.55 µM (inactive).

And the GI50 (OVCAR-5)?
The GI50 was 5.06 µM (inactive).

And the GI50 (K562)?
Its GI50 is > 34.4 µM (inactive).

What about the GI50 (MCF7) of the same compound?
Its GI50 is 1.21 µM (inactive).

What about the GI50 (RXF 393) of the same compound?
Its GI50 is 0.879 µM (active).

What about the GI50 (HT-29) of the same compound?
Its GI50 is 3.92 µM (inactive).

And the GI50 (NCI/ADR-RES)?
The GI50 was 4.26 µM (inactive).

What about the GI50 (KM12) of the same compound?
Its GI50 is 3.32 µM (inactive).

And the GI50 (Hs-578T)?
The GI50 was 2.39 µM (inactive).

What about the GI50 (EKVX) of the same compound?
The GI50 was 6.03 µM (inactive).

What about the GI50 (SK-MEL-28) of the same compound?
The GI50 was 25.8 µM (inactive).

What about the GI50 (SNB-19) of the same compound?
The GI50 was 16.1 µM (inactive).

What about the GI50 (A498) of the same compound?
The GI50 was 8.53 µM (inactive).

What about the GI50 (OVCAR-8) of the same compound?
Its GI50 is 2.97 µM (inactive).

And the GI50 (NCI-H522)?
Its GI50 is 1.41 µM (inactive).

And the GI50 (M14)?
Its GI50 is 1.42 µM (inactive).

And the GI50 (T47D)?
Its GI50 is 0.239 µM (active).

What about the GI50 (786-0) of the same compound?
Its GI50 is 0.703 µM (active).

What about the GI50 (ACHN) of the same compound?
The GI50 was 0.0706 µM (active).

What about the GI50 (Malme-3M) of the same compound?
Its GI50 is 4.94 µM (inactive).

And the GI50 (NCI-H23)?
Its GI50 is 0.857 µM (active).

What about the GI50 (SR) of the same compound?
Its GI50 is 0.09 µM (active).

And the GI50 (IGROV-1)?
Its GI50 is 2.71 µM (inactive).

What about the GI50 (OVCAR-4) of the same compound?
Its GI50 is 5.18 µM (inactive).

What about the GI50 (SF-295) of the same compound?
Its GI50 is 3.21 µM (inactive).

What about the GI50 (RPMI-8226) of the same compound?
Its GI50 is 7.06 µM (inactive).

What about the GI50 (TK-10) of the same compound?
Its GI50 is 2.26 µM (inactive).

What about the GI50 (MDA-N) of the same compound?
Its GI50 is 16.1 µM (inactive).

What about the GI50 (SK-MEL-5) of the same compound?
Its GI50 is 45.3 µM (inactive).

What about the GI50 (OVCAR-3) of the same compound?
Its GI50 is 3.59 µM (inactive).

And the GI50 (SW-620)?
The GI50 was 3.56 µM (inactive).

What about the GI50 (MOLT-4) of the same compound?
Its GI50 is 1.18 µM (inactive).

And the GI50 (LOX IMVI)?
Its GI50 is 4.61 µM (inactive).

What about the GI50 (HCC 2998) of the same compound?
Its GI50 is 1.2 µM (inactive).

And the GI50 (CAKI-1)?
The GI50 was 0.154 µM (active).

And the GI50 (UACC-62)?
Its GI50 is 1.51 µM (inactive).

And the GI50 (COLO 205)?
The GI50 was 0.977 µM (active).

And the GI50 (SK-OV-3)?
The GI50 was 4.54 µM (inactive).

What about the GI50 (HOP-62) of the same compound?
Its GI50 is 2.26 µM (inactive).

And the GI50 (HL-60)?
Its GI50 is 4.16 µM (inactive).

What about the GI50 (PC-3) of the same compound?
The GI50 was 3.63 µM (inactive).

And the GI50 (U-251)?
Its GI50 is 6.47 µM (inactive).

And the GI50 (SF-268)?
The GI50 was 0.414 µM (active).

What about the GI50 (SF-539) of the same compound?
The GI50 was 1.99 µM (inactive).

What about the GI50 (CCRF-CEM) of the same compound?
The GI50 was 1.96 µM (inactive).

And the GI50 (BT-549)?
Its GI50 is 9.25 µM (inactive).

What about the GI50 (DU-145) of the same compound?
Its GI50 is 0.348 µM (active).

And the GI50 (SNB-75)?
The GI50 was 0.468 µM (active).

And the GI50 (MDA-MB-435)?
The GI50 was 24.9 µM (inactive).

And the GI50 (HCT-116)?
Its GI50 is 5.78 µM (inactive).

And the GI50 (NCI-H226)?
Its GI50 is 7.76 µM (inactive).

What does the source list for `N=C(N)NS(=O)(=O)c1ccc(NC(=O)c2cccc3c(NNc4ccc(C(=O)O)cc4)c4ccccc4nc23)cc1`?
GI50 (NCI-H460): 67.3 µM (inactive); GI50 (SN12C): > 100 µM (inactive); GI50 (UO-31): 32.7 µM (inactive); GI50 (HCT-15): > 100 µM; GI50 (HOP-92): 24.2 µM (inactive); GI50 (A549): > 100 µM (inactive); GI50 (UACC-257): > 100 µM (inactive); GI50 (SK-MEL-2): 22.9 µM (inactive); GI50 (MDA-MB-231): 61 µM (inactive); GI50 (OVCAR-5): > 100 µM (inactive); GI50 (K562): 50.1 µM (inactive); GI50 (MCF7): > 100 µM (inactive); GI50 (RXF 393): > 100 µM (inactive); GI50 (HT-29): 41.4 µM (inactive); GI50 (NCI/ADR-RES): > 100 µM (inactive); GI50 (KM12): 45.2 µM (inactive); GI50 (Hs-578T): > 100 µM (inactive); GI50 (EKVX): 26.6 µM (inactive); GI50 (SK-MEL-28): > 100 µM (inactive); GI50 (SNB-19): 57.8 µM (inactive); GI50 (A498): 24.4 µM (inactive); GI50 (OVCAR-8): > 100 µM (inactive); GI50 (NCI-H522): 51.1 µM (inactive); GI50 (M14): > 100 µM (inactive); GI50 (T47D): 39.6 µM (inactive); GI50 (786-0): > 100 µM (inactive); GI50 (ACHN): > 100 µM (inactive); GI50 (Malme-3M): 93.1 µM (inactive); GI50 (NCI-H23): > 100 µM (inactive); GI50 (SR): 33.5 µM (inactive); GI50 (IGROV-1): > 100 µM (inactive); GI50 (OVCAR-4): > 100 µM (inactive); GI50 (SF-295): > 100 µM (inactive); GI50 (RPMI-8226): > 100 µM (inactive); GI50 (TK-10): > 100 µM (inactive); GI50 (MDA-N): > 100 µM (inactive); GI50 (SK-MEL-5): 99.1 µM (inactive); GI50 (OVCAR-3): 46.7 µM (inactive); GI50 (SW-620): > 100 µM (inactive); GI50 (MOLT-4): 44.9 µM (inactive); GI50 (LOX IMVI): 48.4 µM (inactive); GI50 (HCC 2998): 52.2 µM (inactive); GI50 (CAKI-1): > 100 µM (inactive); GI50 (UACC-62): 70.1 µM (inactive); GI50 (COLO 205): 65 µM (inactive); GI50 (SK-OV-3): 47.2 µM (inactive); GI50 (HOP-62): > 100 µM (inactive); GI50 (HL-60): 32.6 µM (inactive); GI50 (PC-3): 46.3 µM (inactive); GI50 (U-251): 34.6 µM (inactive); GI50 (SF-268): 58.7 µM (inactive); GI50 (SF-539): 71.3 µM (inactive); GI50 (CCRF-CEM): 25.8 µM (inactive); GI50 (BT-549): > 100 µM (inactive); GI50 (DU-145): 48.5 µM (inactive); GI50 (SNB-75): > 100 µM (inactive); GI50 (MDA-MB-435): 95.7 µM (inactive); GI50 (HCT-116): 59 µM (inactive); GI50 (NCI-H226): 64 µM (inactive)
